Measured values from article PMC12035807 (2025).

Experiments:
[1] = test system: 5'-Cy5-Ba SAM-VI riboswitch (RNA, riboswitch) GGCAUUGUGCCUCGCAUUGCACUCCGCGGGGCGAUAAGUCCUGAAAAGGGAUGUC; test: MST; details: 100 mM KCl, 25 mM MgCl2, 50 mM Tris-HCl pH 7.5, 2% DMSO
[2] = test system: Ba SAM-VI riboswitch (label-free, IVT) (RNA, riboswitch) GGCAUUGUGCCUCGCAUUGCACUCCGCGGGGCGAUAAGUCCUGAAAAGGGAUGUC; test: ITC; details: 50 mM KCl, 10 mM MgCl2; 40 mM HEPES pH 7.0, 25 °C, 0.2% DMSO
[3] = test system: 5'-Cy5-Tte preQ1 riboswitch (RNA, riboswitch) CUGGGUCGCAGUAACCCCAGUUAACAAAACAAG; test: MST; details: 100 mM KCl, 25 mM MgCl2, 50 mM Tris-HCl pH 7.5, 2% DMSO
[4] = test system: 5'-Biotin-Ba SAM-VI riboswitch (RNA, riboswitch) GGCAUUGUGCCUCGCAUUGCACUCCGCGGGGCGAUAAGUCCUGAAAAGGGAUGUC; test: SPR, 1:1 kinetic fit; details: 150 mM NaCl, 6 mM MgCl2; 50 mM HEPES pH 7.0, 25 °C
[5] = test system: Tte preQ1 riboswitch (not labelled) (RNA, riboswitch) CUGGGUCGCAGUAACCCCAGUUAACAAAACAAG; test: ITC; details: 100 mM NaCl, 6 mM MgCl2, 50 mM HEPES pH 7.0, 25 °C; for binding: loose binding in SPR; for KD: 0.2% DMSO
[6] = test system: 5'-Biotin-Tte preQ1 riboswitch (RNA, riboswitch) CUGGGUCGCAGUAACCCCAGUUAACAAAACAAG; test: SPR, 1:1 kinetic fit; details: 150 mM NaCl, 6 mM MgCl2, 50 mM HEPES pH 7.0, 25 °C
[7] = test system: 5'-Biotin-Tte preQ1 riboswitch (RNA, riboswitch) CUGGGUCGCAGUAACCCCAGUUAACAAAACAAG; test: SPR, Interaction Map analysis; details: 150 mM NaCl, 6 mM MgCl2; 50 mM HEPES pH 7.0, 25 °C, 2% DMSO
[8] = test system: 5'-Biotin-Tte preQ1 riboswitch (RNA, riboswitch) CUGGGUCGCAGUAACCCCAGUUAACAAAACAAG; test: SPR; details: 150 mM NaCl, 6 mM MgCl2; 50 mM HEPES pH 7.0, 25 °C; loose unspecific, no saturation to 50 µM, KD not determinable

KD [2] [mM] | binding ([3]; up to 1 mM) | KD [4] [nM] | binding ([1]; up to 1 mM) | SMILES | other results
0.000671 ± 5.9e-05 | no | 3720 ± 410 | – | C[S+](CC[C@H](N)C(=O)O)C[C@H]1O[C@@H](n2cnc3c(N)ncnc32)[C@H](O)[C@@H]1O (some centres unmarked) | KD ([1]; 20 nM RNA): 0.718 ± 0.399 × 10^-6 M
– | – | – | no | NCCCCNCCCNCCOc1ccc2oc3ccccc3c2c1 | binding ([5]; RNA 15 µM, ligand 150 µM): no
0.014 ± 0.0042 | no | 150000 ± 39000 | – | Nc1ncnc2c1ncn2[C@@H]1O[C@H](CSCC[C@H](N)C(=O)O)[C@@H](O)[C@H]1O | KD ([1]; 20 nM RNA): 34.4 ± 12.0 × 10^-6 M
– | – | – | no | N#Cc1c[nH]c2nc(N)[nH]c(=O)c12 | binding ([3]; 20 nM RNA): yes; KD [5]: 85.4 ± 3.3 nM; KD ([6]; 2% DMSO): 74.0 ± 29.4 nM; KD [7]: 134 nM
– | – | – | no | NCc1c[nH]c2nc(N)[nH]c(=O)c12 | binding ([3]; 20 nM RNA): yes; KD [5]: 23.1 ± 7.4 nM; KD ([6]; one representative sensorgram, replicates 18.5-47.4, mean not in material): 19.1 nM
– | – | – | no | NCCCCNCCCNCCOc1ccc2[nH]c3ccccc3c2c1 | binding ([5]; RNA 15 µM, ligand 150 µM): no
– | – | – | no | NCCOc1ccc2[nH]c3ccccc3c2c1 | binding ([5]; RNA 15 µM, ligand 150 µM): no
– | – | – | no | NCCCNCCOc1ccc2[nH]c3ccccc3c2c1 | binding ([5]; RNA 30 µM, ligand 300 µM): no
– | – | – | no | NCCOc1ccc2oc3ccccc3c2c1 | binding ([5]; RNA 30 µM, ligand 300 µM): no
0.00331 ± 0.00021 | no | 12300 ± 1300 | – | Nc1ncnc2c1ncn2[C@@H]1O[C@H](CNCC[C@H](N)C(=O)O)[C@@H](O)[C@H]1O | KD ([1]; 20 nM RNA): 33.3 µM
0.00173 ± 0.00051 | no | 4170 ± 1560 | – | NCCCNC[C@H]1O[C@@H](n2cnc3c(N)ncnc32)[C@H](O)[C@@H]1O | binding ([1]; 20 nM RNA): yes; binding [8]: weak
– | – | – | no | NCCCNCCOc1ccc2oc3ccccc3c2c1 | binding ([5]; RNA 30 µM, ligand 300 µM): no
